# Tests used:
# Assay type in all cases: biochemical
# [1] = test system: D-acylase from Aspergillus oryzae in the presence of an N-acetylamino acid racemase (AAR) from Amycolatopsis orientalis subsp. lurida; experiment: D-acylase activity assay in the presence of AAR, producing D-Met from Moc-L-Met; details: Moc-L-Met 25 mM, Tris/HCl 50 mM pH 8.0, cobalt chloride 6 mM, D-Acylase 2.4 U, AAR 0.4 U, final volume 200 μL; D-Met detected by RP HPLC
# Source text: B. Producing D-Met from Moc-L-Met Moc-L-Met was used in an assay to determine the activity of the D-acylase from Aspergillus oryzae in the presence of an N-acetylamino acid racemase (AAR) from Amycolatopsis orientalis subsp. lurida. [table] D-Met and L-Met were detected by reverse phase HPLC (RP 18). The unit data for the enzymes refer to specific activity with N-Ac-L-Met and N-Ac-D-Met as substrate.
# [2] = test system: L-acylase from Aspergillus oryzae; experiment: L-acylase activity assay, producing L-Met from Moc-L-Met; details: Moc-L-Met 25 mM, Tris/HCl 50 mM pH 8.0, cobalt chloride 6 mM, L-Acylase 2.0 U, final volume 200 μL; L-Met detected by RP HPLC
# Source text: Moc-L-Met was used in an assay to determine the activity of the L-acylase from Aspergillus oryzae. A. Producing L-Met from Moc-L-Met [table] D-Met and L-Met were detected by reverse phase HPLC (RP 18). The unit data for the enzymes refer to specific activity with N-Ac-L-Met and N-Ac-D-Met as substrate.
# [3] = test system: N-acetylamino acid racemase (AAR) from Amycolatopsis orientalis subsp. lurida; experiment: Racemase activity assay of recombinant N-acetylamino acid racemase (polarimeter); details: substrate 25 mM, Tris/HCl 50 mM pH 8.0, cobalt chloride 6 mM, ca. 150 μg AAR, 30° C., 3 to 12 hours, λ=365 nm
# Experimental: Detection of the racemase activity of a recombinant N-acetylamino acid racemase AAR enzyme The substrate spectrum of the N-acetylamino acid racemase (AAR) from Amycolatopsis orientalis subsp. lurida was tested with the enzyme assay described herein below. The composition of the assay was as follows: [table] Enantiomer-pure amino acid derivatives were used in the assay and the formation of the corresponding racemate was followed using a polarimeter (Perkin-Elmer 241). The incubation was carried out at 30° C. (heatable cell) for 3 to 12 hours. The measurements were made at a wavelength of λ=365 nm.
compound,measurement,setting,value
COC(=O)N[C@@H](CCSC)C(=O)O [N-methyloxycarbonyl-L-Met],Volume activity,[1],0.6 U/ml
same,Volume activity,[2],1.4 U/ml
same,Specific Activity of the AAR,[3],42 mU/mg
